Measurements from paper PMC10907374, “G2019S selective LRRK2 kinase inhibitor abrogates mitochondrial DNA damage” (NPJ Parkinson's Disease, 2024).
Values joined by “and” are separate entries in the source; they are usually repeats but may differ in a detail not shown here. Equal entries are not always repeated.

Legend:
[1] = target: T1, G2019S variant of human LRRK2 (G2019S-LRRK2) (Homo sapiens, UniProt Q5S007, G2019S); assay: LRRK2 pSer1292 autophosphorylation western immunoblot in HEK293 cells stably overexpressing G2019S-LRRK2; format: cell-based; conditions: for decrease in LRRK2 pSer1292 levels: G2019S-LRRK2 cells, 2 h
T1 construct: WT-LRRK2 or G2019S-LRRK2 overexpressing cells show expression of LRRK2 pSer1292 and full-length LRRK2; expressed in transfected cells
T1 sequence (Q5S007 whole entry G2019S): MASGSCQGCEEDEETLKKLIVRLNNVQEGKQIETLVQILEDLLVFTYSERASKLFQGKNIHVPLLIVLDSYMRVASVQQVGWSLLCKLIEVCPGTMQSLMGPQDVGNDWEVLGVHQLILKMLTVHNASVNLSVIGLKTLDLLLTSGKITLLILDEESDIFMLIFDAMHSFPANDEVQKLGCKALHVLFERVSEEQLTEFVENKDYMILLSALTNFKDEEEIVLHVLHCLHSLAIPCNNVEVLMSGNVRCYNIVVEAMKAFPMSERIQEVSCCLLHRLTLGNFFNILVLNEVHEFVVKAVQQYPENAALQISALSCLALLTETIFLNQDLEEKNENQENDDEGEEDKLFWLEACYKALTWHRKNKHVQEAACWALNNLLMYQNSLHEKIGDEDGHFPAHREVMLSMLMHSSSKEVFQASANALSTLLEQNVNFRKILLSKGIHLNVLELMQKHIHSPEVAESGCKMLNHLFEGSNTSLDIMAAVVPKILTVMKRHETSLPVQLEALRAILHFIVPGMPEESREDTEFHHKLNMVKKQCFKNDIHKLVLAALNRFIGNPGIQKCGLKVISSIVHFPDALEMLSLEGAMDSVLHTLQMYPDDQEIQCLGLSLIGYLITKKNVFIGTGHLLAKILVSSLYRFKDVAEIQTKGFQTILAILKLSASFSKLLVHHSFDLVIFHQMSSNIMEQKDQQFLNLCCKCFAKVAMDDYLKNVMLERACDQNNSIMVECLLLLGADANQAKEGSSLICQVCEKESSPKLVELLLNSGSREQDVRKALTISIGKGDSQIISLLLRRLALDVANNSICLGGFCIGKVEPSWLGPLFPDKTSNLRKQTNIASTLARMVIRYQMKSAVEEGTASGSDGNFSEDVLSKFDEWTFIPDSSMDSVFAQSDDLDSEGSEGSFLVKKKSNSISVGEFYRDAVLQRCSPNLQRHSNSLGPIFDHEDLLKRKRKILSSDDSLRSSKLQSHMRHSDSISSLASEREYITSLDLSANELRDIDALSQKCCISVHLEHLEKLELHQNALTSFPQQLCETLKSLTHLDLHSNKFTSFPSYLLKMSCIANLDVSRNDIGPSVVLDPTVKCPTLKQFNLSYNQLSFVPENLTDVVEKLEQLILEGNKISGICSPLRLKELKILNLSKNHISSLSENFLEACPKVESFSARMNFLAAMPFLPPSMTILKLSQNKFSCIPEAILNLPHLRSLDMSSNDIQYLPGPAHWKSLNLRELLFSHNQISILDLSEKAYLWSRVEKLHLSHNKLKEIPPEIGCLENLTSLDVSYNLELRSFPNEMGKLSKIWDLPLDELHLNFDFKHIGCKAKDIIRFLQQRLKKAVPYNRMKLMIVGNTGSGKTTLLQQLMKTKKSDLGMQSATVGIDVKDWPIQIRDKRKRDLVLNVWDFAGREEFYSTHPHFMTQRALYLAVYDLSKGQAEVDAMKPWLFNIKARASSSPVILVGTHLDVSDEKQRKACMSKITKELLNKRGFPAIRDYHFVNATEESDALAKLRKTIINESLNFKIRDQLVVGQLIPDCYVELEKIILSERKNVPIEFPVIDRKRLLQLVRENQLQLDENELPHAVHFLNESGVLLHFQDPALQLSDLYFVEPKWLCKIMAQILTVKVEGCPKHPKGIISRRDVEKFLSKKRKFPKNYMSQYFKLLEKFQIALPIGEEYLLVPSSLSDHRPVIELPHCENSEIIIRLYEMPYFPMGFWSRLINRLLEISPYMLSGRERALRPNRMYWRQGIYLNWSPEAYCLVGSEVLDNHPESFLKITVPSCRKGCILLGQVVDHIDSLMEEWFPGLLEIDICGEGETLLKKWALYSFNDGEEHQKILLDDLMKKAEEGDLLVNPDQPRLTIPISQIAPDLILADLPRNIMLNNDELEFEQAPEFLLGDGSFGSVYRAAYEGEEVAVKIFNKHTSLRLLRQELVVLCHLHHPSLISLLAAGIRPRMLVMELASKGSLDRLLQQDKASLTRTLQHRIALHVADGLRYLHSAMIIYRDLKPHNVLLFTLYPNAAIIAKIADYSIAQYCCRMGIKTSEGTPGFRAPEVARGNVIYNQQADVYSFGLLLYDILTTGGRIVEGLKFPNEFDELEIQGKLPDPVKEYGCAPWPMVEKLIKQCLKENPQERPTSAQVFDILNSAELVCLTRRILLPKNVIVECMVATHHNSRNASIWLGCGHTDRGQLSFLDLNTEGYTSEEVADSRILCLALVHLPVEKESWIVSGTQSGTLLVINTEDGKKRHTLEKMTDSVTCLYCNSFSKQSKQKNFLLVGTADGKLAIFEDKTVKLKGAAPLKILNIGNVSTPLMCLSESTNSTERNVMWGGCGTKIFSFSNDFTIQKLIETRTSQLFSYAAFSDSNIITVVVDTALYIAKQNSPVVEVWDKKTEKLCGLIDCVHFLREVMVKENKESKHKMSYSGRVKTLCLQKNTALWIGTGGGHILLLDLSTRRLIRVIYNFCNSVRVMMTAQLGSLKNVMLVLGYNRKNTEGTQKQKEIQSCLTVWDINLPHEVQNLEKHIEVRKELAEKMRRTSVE
Experimental: Cells were plated at a density of 0.3 × 10^6 cells in a 6-well dish and treated at ~40–50% confluency. At the time of harvest, cells were collected and either protein collected or DNA extracted as described below.
For LRRK2-WT or G2019S-LRRK2, ~1.5 million cells were pelleted and resuspended in 75 μl of lysis buffer [(RIPA Buffer (Sigma-Aldrich, R0278-50ML), protease inhibitor cocktail (Sigma-Aldrich, P8340), and Halt phosphatase inhibitor cocktail (Thermo Fisher, 78420)]. For LCLs, five million cells were pelleted and resuspended in 100 µl of lysis buffer. For both types of cells lysates were centrifuged at 10,000 × g after a 10 min incubation on ice, and the supernatant was collected. Protein was quantified using the DC protein assay (Bio-Rad, 5000112). In total, 50 μg of protein was loaded for HEK293 LRRK2-WT or G2019S-LRRK2 cells. Due to the differing endogenous LRRK2 levels, 40 µg of ND02559, 60 µg of ND00264, or 100 µg of ND00011 and ND01618 of protein sample was loaded. Protein samples were incubated at 100 °C for 5 min with NuPAGE Sample loading dye (Thermo Fisher, NP0007) and dithiothreitol as reducing agent. After 4–20% SDS-PAGE, the blots were blocked in 5% w/v nonfat dry milk in 1X PBST (0.05% Tween 20). For our investigations, the following primary antibodies were used: mouse anti-LRRK2 N241a (Antibodies INC, 75-253, 1:5000 for HEK293 cells and 1:2000 for LCLs), rabbit anti-LRRK2 pS935 (Abcam, ab133450, 1:10,000 for HEK293 cells and 1:2000 for LCLs), mouse anti-β-actin (Novus, 8H10D10, 1:10,000), and rabbit anti-LRRK2 pS1292 (Abcam, ab203181, 1:500). The blots were then probed with fluorescent-labeled secondary antibodies, IRDye donkey anti-mouse and anti-rabbit at 1:10,000 (LI-COR, 926-32212, 926-68072), and scanned using an Odyssey Imaging scanner (LI-COR). Fluorescence intensities were quantified using ImageStudio Lite software (LI-COR), and the signal from the protein of interest was normalized to the fluorescence intensity of either LRRK2 or β-actin. Values were averaged from at least three technical replicates within a cell line, or two biological replicates (two healthy control lines and two PD LCLs). All blots were derived from the same experiment and processed in parallel.

wild-type HEK293 cells = assay: Mitophagy (Mtphagy dye / Lyso dye live cell imaging) in wild-type HEK293 cells; format: cell-based, human; conditions: 100 nM 2 h pre-treatment; for basal levels of mitophagy: Mitophagy dye intensity or co-localization; for FCCP-stimulated mitophagy: then 20 μM FCCP 3 h
Experimental: Thirty-five mm cell culture dishes (Cellvis, D35-20-1.5-N) were coated with poly-D-lysine (Sigma-Aldrich, P7280-5MG) for 5 min, washed with cell culture grade water (Sigma-Aldrich, W3500), and allowed to dry for at least 1 h before plating. LRRK2^G2019S/G2019S KI HEK293 and wild-type cells were passaged as described above and plated at 300,000 cells per well on poly-D-lysine-coated dishes. […] Following this, cells were washed three times with serum-free medium, and a working solution of Mtphagy dye (Dojindo, MD-01) was prepared in serum-free medium according to manufacturer protocols. Cultures were incubated with Mtphagy dye for 30 min, followed by three washes with serum-free medium. Complete medium was used to prepare a 20 µM FCCP (Abcam, ab120081) or DMSO control treatment solution, which was used to treat cells for 3 h. Following treatment, cells were then washed 3 times with serum-free medium, and a working solution of Lyso dye (Dojindo, MD-01) was prepared in serum-free medium and used to treat cells for 30 min. Complete medium lacking phenol red was prepared for use in confocal live cell imaging by combining phenol red-free DMEM/F-12 (Fisher Scientific, 21-041-025), FBS (VWR, 97068-085), and penicillin-streptomycin (VWR, 45000-652). Following Lyso dye treatment, cultures were washed three times with phenol red-free medium, followed by adding fresh phenol red-free medium to cell culture dishes. MitoBright LT Deep Red (Dojindo, MT12-12) was diluted in growth medium to prepare a 0.1 μmol/l solution and was used to treat cells for 15 min for total mitochondrial staining. Live cell imaging (5% CO2, 37 °C) was performed using a Zeiss LSM 880 Confocal Laser Scanning Microscope with Zen Black software. On average, ~70 cells were analyzed for each condition per each experimental replicate.
Following imaging, files were processed using Zen Blue software, and TIFF files of each channel were obtained for analysis. ImageJ was used to obtain readouts for image analysis. All images were converted to 8-bit format. For each respective image, the Lyso dye channel was used to create a mask delineating each lysosomal focus as a region of interest (ROI). Thresholding parameters were adjusted between biological replicates as required to ensure that the Lyso dye ROI encompassed all lysosome foci appropriately, and this was used to create a mask. This was then applied to the corresponding Mtphagy dye channel image, allowing collection of Mtphgy fluorescence intensity readouts for each lysosomal focus. Outliers were removed using Prism software (GraphPad) with the coefficient of removal set to 0.2%. Data was thresholded to exclude lysosomes not containing mitochondria by excluding fluorescence values with intensities equal to or below background levels. The number of ROIs remaining after thresholding was used to quantify lysosomes containing fluorescing mitochondria (mitolysosomes). Fluorescence intensity values for all mitolysosomes per condition per biological replicate were averaged to obtain a value of mitophagy fluorescence intensity per mitolysosome. For each replicate, all values of average mitolysosome fluorescence intensity were normalized to wild-type (vehicle treated) levels for the given replicate.

[2] = set-up: method as in PMID 33197196; conditions: cited from earlier work
R1441C LRRK2 cultures = system: R1441C LRRK2 cultures; set-up: method as in PMID 37384414; conditions: R1441C LRRK2 cultures ref 71; cited from earlier work

SMILES: CC1=C(C(=O)Nc2ccc3[nH]nc(-c4ccnc(N5CCOCC5)c4)c3c2)C(C)(C)n2nnnc2N1C [EB-42168]
- IC50 ([1]; G2019S-LRRK2 HEK293 cells, 2 h treatment, read-out: calculated IC50 of LRRK2 pSer1292): 44 nM
- decrease in LRRK2 pSer1292 levels ([1]; 10 nM): 30%
- decrease in LRRK2 pSer1292 levels ([1]; 10 nM, listed as EB-42618): dephosphorylated
- decrease in LRRK2 pSer1292 levels ([1]; 100 nM): ~ 70% and 65%
- basal levels of mitophagy (wild-type HEK293 cells): did not impact
- FCCP-stimulated mitophagy (wild-type HEK293 cells): blocked
- brain penetration [2]: poorly brain penetrant

SMILES: C[C@@H]1CN(c2cc(-c3n[nH]c4ccc(OC5(C)CC5)cc34)ncn2)C[C@H](C)O1 [MLi-2, reference compound]
- basal levels of mitophagy (wild-type HEK293 cells): did not impact
- FCCP-stimulated mitophagy (wild-type HEK293 cells): blocked
- impaired mitophagy and other mitochondrial parameters (R1441C LRRK2 cultures): not corrected
